Data: patent US5936065A, “CS-1 peptidomimetics, compositions and methods of using the same” (Cytel Corporation, priority 1995, dated 1999)
Square brackets hold non-standard residues; d marks the D form. Peptide text beside a SMILES is read from it. * marks the point of attachment. NMeF = CN[C@@H](Cc1ccccc1)C(=O)O; NMeD = CN[C@@H](CC(=O)O)C(=O)O; Morpholide = C1CN(*)CCO1; Nle = CCCC[C@H](N)C(=O)O; PhAc = O=C(Cc1ccccc1)*

How the values were obtained:
VLA-4 receptor = target: T1, VLA-4 receptor (Homo sapiens, UniProt P05556+P13612); experiment: In vitro binding assay: inhibition of binding of 51Cr-labeled Jurkat cells to solid phase-bound CS-1 compound (SEQ ID NO:1); assay type: cell-based
T1 construct: inflammatory cells that contain the VLA-4 receptor [Jurkat cells; host or cells: Jurkat cells (human T lymphoblastic line)
Description: Binding inhibition is measured here as a concentration of compound that inhibits one-half the binding between a standard number of Jurkat cells and a standard amount of CS-1 compound bound to the surface of a microtiter plate well. Those concentrations are conveniently expressed as IC50 values, smaller numbers indicating a lower concentration required to inhibit 50 percent binding and therefore greater potency. Further specifics of this assay are provided hereinafter.
Jurkat cells (ATCC TIB 152), a human T lymphoblastic line, labeled with ^51 chromium were used to assay in vitro binding inhibition provided by various compounds discussed herein.
The plates were prepared as follows: The 25-mer CS-1 compound (SEQ ID NO:1) dissolved at 0.5-1 μg/ml in a buffer of 0.1M NaHCO3 at pH 9.5 that also contained 10 μg/ml of bovine serum albumin (BSA) or a conjugate of the CS-1 compound linked to ovalbumin (CS-1-OVA) dissolved at 1-2.5 μg/ml in the same buffer was used as the substrate. Each well of the microtiter plates was coated with 50 μl of substrate or buffer alone for controls. The wells were permitted to dry out completely and were then rinsed twice with PBS at pH 7.4. Non-specific binding sites of each well were then blocked using 200 μl per well of RPMI/1 percent BSA for two hours at room temperature.
Jurkat cells (3-5×10^6 cells) were placed into a 15 ml Falcon™ round-bottom tube with a cap. The tube was centrifuged, and the extra medium was then removed.
Two hundred microliters of a ^51 Cr labeling solution were added to the centrifuged cells and maintained in contact with the cells for 90-120 minutes in a warm room. […] Longer contact times provide a greater amount of labeling but lower cell viability.
The labeled cells are washed with (i) complete medium, (ii) 1 mM EDTA/PBS and then (iii) RPM1/1 percent BSA free of serum components. The cells are centrifuged after each washing. The cells are finally resuspended in serum-free RPMI/1 percent BSA at a concentration of 1×10^6 viable cells/ml, which provides a concentration that is diluted by one-half in the assay.
Inhibitor compounds are prepared as stock solutions at 20 mg/ml in DMSO in 1.5 ml cryogenic screwcap vials, and were stored at -70° C. Using Flow™ round-bottom or V-bottom microtiter plates, the inhibitor compounds were prepared at twice the assay concentration in RPMI/1 percent BSA at 60 μl/well.
Four initial dilutions were typically used.
The ^51 Cr-labeled cells ([…] at 60 μl/well) were then admixed with the diluted compound solutions. The admixtures were maintained at room temperature (about 22° C.) for 30 minutes.
One hundred microliters of each inhibitor compound/cell admixture were transferred to the substrate-coated wells. This was done in triplicate for each dilution. The resulting plates were incubated for 30 minutes at 37° C. and then washed gently three times with RPMI/1 percent BSA at 200 μl/well. Binding was observed microscopically, particularly after the second wash.
The bound cells were then lysed by the addition of a 0.5 percent solution of sodium dodecylsulfate in water at 100 μl/well. The resulting solutions were then processed for counting and calculation of IC50 values following usual procedures.
The data of Table 1 are normalized to the binding of SEQ ID NO:3. […] Multiple assays for the same compound were averaged.

[1] = test system: New Zealand white rabbits; experiment: Treatment of asthmatic rabbits (house dust mite antigen challenge, crossover study); assay type: in vivo, rabbit; settings: 100 mg/kg nebulizer
Description: Six New Zealand white rabbits were immunized with house dust mite antigen from birth through four months of age. Upon immunization, three rabbits received a single nebulizer administration of the inhibitor compound, Compound ID No. 1051.01, N-phenylacetyl-Leu-Asp-Phe-morpholinamide in aqueous 50 percent ethanol as diluent in an amount of 100 mg/kg, and the other three received diluent alone. All of the rabbits were challenged with house dust mite antigen about 15-30 minutes after administration of the compound, with those animals not receiving compound serving as controls.
Once immunized and challenged, the inflammatory state subsides to a basal level within about three weeks. The three animals used as controls were thereafter used as subjects for receipt of an inhibitor compound, and the three rabbits that initially received the compound can serve as controls.
Such a crossover study was done here. […]
Initial pulmonary function, measured by dynamic compliance (Cdyn) and lung resistance (RL) , and bronchoalveolar lavage (BAL) to obtain an effector cell count, here eosinophils, were conducted prior to administration of the compound or diluent for both portions of this crossover study. […]

BALB/c mice = experiment: Adoptive transfer delayed type hypersensitivity (oxazolone) in mice; assay type: in vivo, mouse; settings: versus vehicle alone; implanted pump, 24 hours
Description: An adoptive transfer delayed-type hypersensitivity murine model has been developed using splenic T cells primed to oxazolone. This model is described in Elices et al., Clin. Exp. Rheum., 11(Suppl. 8):577-580 (1993), whose procedures were followed here.
Thus, BALB/c mice were shaved on the belly and painted (50 μl on the belly and 5 μl on each paw) with three percent oxazolone in acetone/olive oil (4:1) at days zero and 1. At day 5, the mice were sacrificed, their spleens removed, and splenic T cells were obtained via nylon wool columns.
Normal saline or saline containing 25×10^6 /animal of the oxazolone-immune T cells were separately injected into naive mice. The mice were then challenged by painting 10 μl of 2 percent oxazolone onto one ear each. All procedures were carried out under sterile conditions and in endotoxin-free buffers.
Prior to challenge or saline injection, the mice were implanted with pumps that subcutaneously administered normal saline, normal saline containing the compound, Compound ID No. 896.52, N-phenylacetyl-Leu-Asp-Phe-D-Pro-NH2, or normal saline containing a compound with a scrambled sequence continually at 6 mg/kg/day for a 24-hour time period. The swelling diameter at the site of challenge or saline injection was measured with a microcaliper 24 hours thereafter.
An expanded study was carried out as described above except that a scrambled compound control was not used as a control for further inhibitor compounds of Table 1 with larger groups of mice. Statistical analyses were carried out versus injection of vehicle alone.

Jurkat T cell line = experiment: Binding of Jurkat cells to frozen human RA synovial sections; assay type: cell-based; settings: 10-mer at 500 μg/ml; 896.52 at its IC50 value
Description: Binding studies were carried out using the Jurkat T cell line and frozen RA synovial sections. […] Stimulated MOLT-4 cells behaved similarly.
The absolute value of that IC50 value is about 0.5 μmolar.

mouse = settings: in vivo; cited from earlier work
[2] = binding inhibition potency (IC50) normalized to standard compound of SEQ ID NO:3 = 1, multiple assays averaged, about one-tenth or less assigned zero

T1 sequence (P13612 34-1032): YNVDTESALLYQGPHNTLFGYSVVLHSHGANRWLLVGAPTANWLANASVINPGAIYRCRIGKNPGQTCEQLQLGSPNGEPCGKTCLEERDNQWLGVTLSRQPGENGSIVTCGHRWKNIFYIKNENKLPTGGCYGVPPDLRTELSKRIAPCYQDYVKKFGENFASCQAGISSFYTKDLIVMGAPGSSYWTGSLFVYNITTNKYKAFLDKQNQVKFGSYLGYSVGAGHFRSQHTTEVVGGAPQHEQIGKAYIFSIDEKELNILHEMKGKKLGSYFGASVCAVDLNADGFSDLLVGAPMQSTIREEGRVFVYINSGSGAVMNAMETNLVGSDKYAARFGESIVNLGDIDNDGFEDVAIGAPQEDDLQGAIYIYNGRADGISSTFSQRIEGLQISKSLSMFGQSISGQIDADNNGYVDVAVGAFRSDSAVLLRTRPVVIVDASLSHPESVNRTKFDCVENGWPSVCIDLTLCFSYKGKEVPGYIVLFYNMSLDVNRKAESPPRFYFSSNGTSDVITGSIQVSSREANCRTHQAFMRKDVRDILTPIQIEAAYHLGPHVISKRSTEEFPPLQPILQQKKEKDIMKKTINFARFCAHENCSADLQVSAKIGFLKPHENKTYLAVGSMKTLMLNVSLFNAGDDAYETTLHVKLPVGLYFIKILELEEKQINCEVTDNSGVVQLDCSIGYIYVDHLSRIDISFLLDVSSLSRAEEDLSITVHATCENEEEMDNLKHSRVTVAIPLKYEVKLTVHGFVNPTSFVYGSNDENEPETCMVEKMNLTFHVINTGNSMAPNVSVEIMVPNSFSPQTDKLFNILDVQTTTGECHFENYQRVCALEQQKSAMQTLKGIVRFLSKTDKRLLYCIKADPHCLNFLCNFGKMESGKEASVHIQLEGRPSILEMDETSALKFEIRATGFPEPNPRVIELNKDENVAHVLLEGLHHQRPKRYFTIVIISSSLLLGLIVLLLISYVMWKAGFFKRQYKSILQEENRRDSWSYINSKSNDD
T1 sequence (P05556 21-798): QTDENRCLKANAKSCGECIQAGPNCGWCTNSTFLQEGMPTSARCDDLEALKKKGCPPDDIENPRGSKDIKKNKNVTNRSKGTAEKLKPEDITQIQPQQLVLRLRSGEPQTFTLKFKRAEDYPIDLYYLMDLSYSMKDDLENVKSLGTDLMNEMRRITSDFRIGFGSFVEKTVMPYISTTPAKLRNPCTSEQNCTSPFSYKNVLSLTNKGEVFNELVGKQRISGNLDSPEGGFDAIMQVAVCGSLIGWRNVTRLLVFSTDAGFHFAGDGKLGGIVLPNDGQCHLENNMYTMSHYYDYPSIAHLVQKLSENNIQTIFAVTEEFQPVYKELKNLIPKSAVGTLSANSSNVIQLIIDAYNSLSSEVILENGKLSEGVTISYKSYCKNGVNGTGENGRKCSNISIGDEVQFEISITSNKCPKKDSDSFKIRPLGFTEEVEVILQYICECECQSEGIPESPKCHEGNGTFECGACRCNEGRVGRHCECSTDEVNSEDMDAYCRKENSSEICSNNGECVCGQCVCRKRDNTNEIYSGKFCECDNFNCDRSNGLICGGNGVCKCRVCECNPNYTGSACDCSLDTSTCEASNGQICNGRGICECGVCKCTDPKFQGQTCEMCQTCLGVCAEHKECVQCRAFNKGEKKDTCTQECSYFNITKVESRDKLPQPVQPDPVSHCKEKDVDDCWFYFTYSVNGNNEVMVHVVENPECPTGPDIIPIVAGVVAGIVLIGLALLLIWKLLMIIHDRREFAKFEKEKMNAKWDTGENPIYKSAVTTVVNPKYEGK

Q: Which “binding inhibition, in words (compared with standard 10-mer of SEQ ID NO:3 or other compounds)” value (VLA-4 receptor) does the source give for CC(C)C[C@H](NC(=O)Cc1ccccc1)C(=O)N[C@@H](CC(=O)O)C(=O)N[C@@H](Cc1ccccc1)C(=O)N1CCOCC1 [1051.01, N-phenylacetyl-Leu-Asp-Phe-morpholinamide] (PhAc-Leu-Asp-Phe-Morpholide) here?
A: greatest potency

Q: And the “Cdyn value over six hours after challenge” value ([1]; FIG. 4A)?
A: stayed at about the initial value

Q: What about the “RL values over six hours after challenge, percent of initial value” ([1]; FIG. 4B) of the same compound?
A: ≤ 200%

Q: For CC(C)C[C@H](NC(=O)Cc1ccccc1)C(=O)N[C@@H](CC(=O)O)C(=O)N[C@@H](Cc1ccccc1)C(=O)N1CCC(O)CC1 [1070.02, .phi.Ac--Leu--Asp--Phe--4-hydroxpiperidinamide], which “Percent Inhibition of post-challenge swelling, expanded study” value (BALB/c mice) is on record?
A: 29%

Q: For CC(C)C[C@H](NC(=O)Cc1ccccc1)C(=O)N[C@@H](CC(=O)O)C(=O)N[C@@H](Cc1ccccc1)C(=O)N1CCN(CC(=O)O)CC1 [1111.06, .phi.Ac--Leu--Asp--Phe--4-N(carboxy-methyl)piperazinamide], which “Relative Potency” value (VLA-4 receptor; [2]) is on record?
A: 2600

Q: And the “Percent Inhibition of post-challenge swelling, expanded study” value (BALB/c mice)?
A: 30%

Q: Which “Relative Potency” value (VLA-4 receptor; [2]) does the source give for CCCC[C@H](NC(=O)Cc1ccccc1)C(=O)N[C@@H](CC(=O)O)C(=O)N[C@@H](Cc1ccccc1)C(=O)N1CCC[C@@H]1C(N)=O [1160.02] (PhAc-[Nle]DF[dP]-NH2) here?
A: 49

Q: With CCOC(=O)C[C@H](NC(=O)[C@H](CC(C)C)NC(=O)Cc1ccccc1)C(=O)N[C@@H](Cc1ccccc1)C(=O)N1CCC[C@@H]1C(N)=O [1190.01] (PhAc-LD(OEt)F[dP]-NH2) as the compound, how does the “Relative Potency” value (VLA-4 receptor; prodrug compounds, potency before enzymatic conversion to active form, relative to SEQ ID NO:3 = 1) read?
A: 0

Q: For CC(C)C[C@H](NC(=O)Cc1ccccc1)C(=O)N[C@@H](CC(=O)O)C(=O)N(C)[C@@H](Cc1ccccc1)C(=O)N1CCC[C@@H]1C(N)=O [1190.05] (PhAc-LD[NMeF][dP]-NH2), which “Relative Potency” value (VLA-4 receptor; [2]) is on record?
A: 0

Q: Which “Relative Potency” value (VLA-4 receptor; [2]) does the source give for CC(C)C[C@H](NC(=O)Cc1ccccc1)C(=O)N(C)[C@@H](CC(=O)O)C(=O)N[C@@H](Cc1ccccc1)C(=O)N1CCC[C@@H]1C(N)=O [1190.06] (PhAc-L[NMeD]F[dP]-NH2) here?
A: 0

Q: For CC[C@H](C)[C@H](NC(=O)[C@H](CCC(=O)O)NC(=O)[C@@H]1CCCN1C(=O)CN)C(=O)N[C@@H](CC(C)C)C(=O)N[C@@H](CC(=O)O)C(=O)N[C@H](C(=O)N1CCC[C@H]1C(=O)N[C@@H](CO)C(=O)N[C@H](C(=O)O)[C@@H](C)O)C(C)C [SEQ ID NO:3, GPEILDVPST] (H-GPEILDVPST-OH), which “inhibition of Jurkat cell adhesion to RA synovial sections” value (Jurkat T cell line) is on record?
A: could be inhibited

Q: For Arg-Gly-Asp [Arg-Gly-Asp peptide], which “inhibition of contact hypersensitivity / T lymphocyte recruitment to skin inflammatory sites” value (mouse) is on record?
A: also inhibitory
